For orientation: IC50 means the concentration at which inhibition is half-maximal. High values mean weaker potency in that assay, low ones greater potency in that assay.

These results are taken from patent publication US5037852A, “Cinnamoylamide derivatives” (Ono Pharmaceutical Co., Ltd., priority 1987, dated 1991).

For this experiment, the target named is 5α-reductase. Nature of the experiment: Inhibitory activity on 5α-reductase in vitro (rat prostate enzyme, [4-C14]-testosterone conversion to dihydrotestosterone). The experiment is classed as biochemical. To be noted: male rat prostate enzyme; [4-C14]-testosterone 1.5 n mol, NADPH; 60 mins at 37° C.; pH 7.4 buffer. On the procedure:
The test was carried out with reference to the method of J. Shimazaki et al [See Endocrinol, Japon., 18, 179 (1971).]
Male rat's prostate (4 g) was homogenized with its triple volume of 0.1M HEPES buffer (PH 7.4) including 0.25M cane sugar and was centrifuged at 3000 r.p.m. for 10 mins.
The precipitate was suspended into the buffer solution described above (10 ml), and the suspension was centrifuged at 3000 r.p.m for 5 mins. The resulting precipitated was suspended in the buffer solution (3 ml) described above and was used as a sauce of enzyme.
A reaction mixture (total volume 0.1 ml) of [4-C^14 ]-testosterone (1.5n mol, 1.5×10^5 cpm), NADPH (0.5 μmol), enzyme solution (0.03 ml) described above and several kinds of concentration of the compounds in the present invention was incubated for 60 mins at 37° C. Enzyme reaction was quenched by addition of a mixture (0.4 ml) of chloroform and methanol (1:2), and the mixture was centrifuged at 2000 r.p.m for 3 mins. The supernatant (50 μl) was spotted on silica gel thin layer plate. The spot on the plate was developed with a mixture of chloroform, methanol and acetic acid (99.2:0.6:0.2). Radioactivity of dihydrotestosteron generated on plate was measured by TLC scanner of radio-autography and inhibitory ratio was calculated.
For `CCCC(C)Cc1ccc(/C(C)=C/C(=O)Nc2ccccc2OCCCC(=O)O)cc1` (stereo not drawn) [1 (d), 4-[2-{4-(2-methylpentyl)-β-methylcinnamoylamino}phenoxy] butanoic acid], the IC50 was 340 nM.
Then `C/C(=C\C(=O)Nc1ccccc1OCCCC(=O)O)c1ccc(CC2CCCCC2)cc1` [1 (h), 4-[2-(4-cyclohexylmethyl-β-methylcinnamoylamino)phenoxy] butanoic acid], with 280 nM; and `C/C(=C\C(=O)Nc1ccccc1OCCCC(=O)O)c1ccc(CC(C)(C)C)cc1` [1 (b)], with 370 nM.
Take `CCC(CC)Cc1ccc(/C(C)=C/C(=O)Nc2ccccc2OCCCC(=O)O)cc1` [1 (c), 4-[2-{4-(2-ethylbutyl)-β-methylcinnamoylamino}phenoxy]butanoic acid]: the IC50 is 300 nM.
Then `CCCCCc1cccc(/C=C(\C)C(=O)Nc2ccccc2OCCCC(=O)O)c1` [1 (k), 4-[2-(3-pentyl-α-methylcinnamoylamino)phenoxy]butanoic acid], with 240 nM; and `CCCCCc1cccc(/C(C)=C/C(=O)Nc2ccccc2OCCCC(=O)O)c1` [1 (a), 4-[2-(3-pentyl-β-methylcinnamoylamino)phenoxy]butanoic acid], with 160 nM.
Regarding `C/C(=C\C(=O)Nc1ccccc1OCCCC(=O)O)c1ccc(Oc2ccccc2)cc1` [1 (j), 4-[2-(4-phenoxy-β-methylcinnamoylamino)phenoxy]butanoic acid], the IC50 was found to be 250 nM.
For `CCCCCc1ccc(/C(C)=C/C(=O)Nc2ccccc2OCCCC(=O)O)cc1` [Example 1, 4-[2-(4-pentyl-β-methylcinnamoylamino)phenoxy]butanoic acid], inhibition was half-maximal at 200 nM (IC50).
With `C/C(=C\C(=O)Nc1ccccc1OCCCC(=O)O)c1ccc(CCCCc2ccccc2)cc1` [1 (i), 4-[2-{4-(4-phenylbutyl)-β-methylcinnamoylamino)phenoxy] butanoic acid] the figure was 320 nM; with `C/C(=C\C(=O)Nc1ccccc1OCCCC(=O)O)c1ccc(CC2CCC2)cc1` [1 (g), 4-[2-(4-cyclobutylmethyl-β-methylcinnamoylamino)phenoxy] butanoic acid], 110 nM; with `CCCCSc1ccc(/C(C)=C/C(=O)Nc2ccccc2OCCCC(=O)O)cc1` [1 (f), 4-[2-(4-butylthio-β-methylcinnamoylamino)phenoxy]butanoic acid], 430 nM.
With `CCCCCOc1ccc(/C(C)=C/C(=O)Nc2ccccc2OCCCC(=O)O)c(F)c1` [1 (e), 4-[2-(2-fluoro-4-pentyloxy-β-methylcinnamoylamino)phenoxy]butanoic acid] the figure was 280 nM; with `C/C(=C\c1ccc(CCc2ccccc2)cc1)C(=O)Nc1ccccc1OCCCC(=O)O` [1 (l), 4-[2-(4-phenethyl-α-methylcinnamoylamino)phenoxy]butanoic acid], 230 nM.
